From patent US11999727B2 (Tango Therapeutics, Inc., priority 2020, dated 2024)
pIC50: −log10 of the molar value.

Experiments:
[1] = system: HAP1 MTAP-intact cell line; test: SDMA in-cell western assay, HAP1 MTAP-intact; type: cell-based; details: Homo sapiens, HAP1, SDMA in-cell western, HAP1 MTAP-intact; read-out: MTAP HAP1 intact IC50
Method in brief: (§1)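 IC50 values come from SDMA signal quantified by in-cell western in two HAP1 lines, one with native MTAP levels and one lacking MTAP.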

[2] = system: HAP1 MTAP-deleted cell line; test: SDMA in-cell western assay, HAP1 MTAP-deleted; type: cell-based; details: for pIC50: Homo sapiens, HAP1, SDMA in-cell western, HAP1 MTAP-deleted, read-out: HAP 1 MTAP deleted IC50; for MTAP intact/deleted ratio: IC50 ratio HAP1 MTAP-intact / HAP1 MTAP-deleted, SDMA in-cell western
Method in brief: as §1

PRMT5 [3] = biological target: T1, PRMT5 (Homo sapiens, UniProt O14744); test: PRMT5 biochemical IC50 assay with SAM as cofactor; details: PRMT5, SAM as cofactor; read-out: SAM IC50
T1 construct: purchased Viva (custom protein)

[4] = system: HAP1 MTAP-deleted cell line; test: Viability assay, MTAP-deleted cell line; type: cell-based; details: Homo sapiens, HAP1, viability assay, MTAP-deleted cell line; read-out: HAP1 MTAP deleted viability
Description: Table 1 additionally indicates IC50 values in a viability assay for the MTAP-deleted cell line (column 10), indicating the effect of treatment with compound on cell survival.

PRMT5 [5] = biological target: T1, PRMT5; test: PRMT5 biochemical IC50 assay with MTA as cofactor; details: PRMT5, MTA as cofactor; read-out: MTA IC50
PRMT5 [6] = biological target: T1, PRMT5; test: PRMT5 biochemical IC50 assay with no cofactor; details: PRMT5, no cofactor; read-out: No Cofactor/ rel IC50
Description: Table 1 indicates IC50 values (μM) against PRMT5 for exemplary compounds in the presence of SAM as cofactor, with no cofactor, and with MTA as cofactor, respectively (columns 4-6). […] Ki values can be calculated from the IC50 values as described in the Examples section. As detailed in the Examples section, for the assay performed in the presence of SAM, IC50=Ki×1.5 (Ki=IC50/1.5).

T1 sequence (O14744 whole entry): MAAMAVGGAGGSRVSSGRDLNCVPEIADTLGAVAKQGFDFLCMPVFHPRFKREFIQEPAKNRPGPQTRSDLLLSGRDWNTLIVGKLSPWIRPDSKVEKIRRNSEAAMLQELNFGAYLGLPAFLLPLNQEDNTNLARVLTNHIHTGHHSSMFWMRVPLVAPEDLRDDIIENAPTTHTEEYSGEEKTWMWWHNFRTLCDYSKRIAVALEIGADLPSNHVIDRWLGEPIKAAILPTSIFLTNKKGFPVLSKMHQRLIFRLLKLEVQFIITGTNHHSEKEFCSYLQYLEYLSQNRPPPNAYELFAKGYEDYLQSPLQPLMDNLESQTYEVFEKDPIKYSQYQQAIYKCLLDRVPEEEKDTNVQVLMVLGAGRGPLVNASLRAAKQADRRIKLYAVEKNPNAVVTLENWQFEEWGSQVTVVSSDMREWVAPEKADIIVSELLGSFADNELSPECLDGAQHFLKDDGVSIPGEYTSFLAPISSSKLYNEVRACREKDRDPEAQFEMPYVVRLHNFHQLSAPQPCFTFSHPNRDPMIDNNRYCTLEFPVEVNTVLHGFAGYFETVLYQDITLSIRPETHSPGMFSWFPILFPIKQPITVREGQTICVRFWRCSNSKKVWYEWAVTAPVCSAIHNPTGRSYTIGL
T1 sequence (Q9BQA1 whole entry partner): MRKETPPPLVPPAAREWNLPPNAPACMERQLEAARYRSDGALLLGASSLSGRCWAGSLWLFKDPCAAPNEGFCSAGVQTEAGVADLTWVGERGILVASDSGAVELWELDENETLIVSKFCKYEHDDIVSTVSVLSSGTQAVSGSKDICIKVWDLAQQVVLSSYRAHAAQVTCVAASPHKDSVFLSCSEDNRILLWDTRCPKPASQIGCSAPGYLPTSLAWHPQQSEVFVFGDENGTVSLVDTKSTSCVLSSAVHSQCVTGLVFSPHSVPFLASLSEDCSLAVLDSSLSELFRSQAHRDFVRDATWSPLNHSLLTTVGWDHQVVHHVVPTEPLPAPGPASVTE

pIC50 [1]	pIC50 [2]	pIC50 (PRMT5 [3])	pIC50 (PRMT5 [5])	pIC50 (PRMT5 [6])	SMILES	MTAP intact/deleted ratio [2]	pIC50 [4]
< 6.00	6.00 to 7.00	6.30 to 7.30	6.30 to 7.30	< 6.30	CC(C)C1CCCCN1C(=O)C(=O)Nc1cncc(C(N)=O)c1 (centres unmarked) [Compound 100, 5-[[2-(2-isopropyl-1-piperidyl)-2-oxo-acetyl]amino]pyridine-3-carboxamide]	A (an IC50 ratio greater than or equal to 10 fold)	< 5.00
< 6.00	> 7.00	6.30 to 7.30	> 7.30	6.30 to 7.30	NC(=O)c1cncc(NC(=O)C(=O)N2CCCCC2C2CCCCC2)c1 (centres unmarked) [Compound 101, 5-(2-(2-cyclohexylpiperidin-1-yl)-2-oxoacetamido)nicotinamide]	A (an IC50 ratio greater than or equal to 10 fold)	< 5.00
< 6.00	6.00 to 7.00	6.30 to 7.30	> 7.30	6.30 to 7.30	NC(=O)c1cncc(NC(=O)C(=O)N2CCCCC2C2CCC2)c1 (centres unmarked) [Compound 103, 5-[[2-(2-cyclobutyl-1-piperidyl)-2-oxo-acetyl]amino]pyridine-3-carboxamide]	A (an IC50 ratio greater than or equal to 10 fold)	< 5.00
< 6.00	6.00 to 7.00	6.30 to 7.30	6.30 to 7.30	< 6.30	Cc1cc(NC(=O)C(=O)N2CCCCC2c2cccc3c2CC(=O)N3)cnc1N (centres unmarked) [Compound 116, N-(6-Amino-5-methyl-3-pyridyl)-2-oxo-2-[2-(2-oxoindolin-4-yl)-1-piperidyl]acetamide]	A (an IC50 ratio greater than or equal to 10 fold)	< 5.00
< 6.00	6.00 to 7.00	6.30 to 7.30	6.30 to 7.30	6.30 to 7.30	NC(=O)c1cncc(NC(=O)C(=O)N2CCCCC2c2ccccc2)c1N (centres unmarked) [Compound 119, 4-amino-5-[[2-oxo-2-(2-phenyl-1-piperidyl)acetyl]amino]pyridine-3-carboxamide]	A (an IC50 ratio greater than or equal to 10 fold)	< 5.00
< 6.00	6.00 to 7.00	6.30 to 7.30	> 7.30	6.30 to 7.30	NC(=O)c1cncc(NC(=O)C(=O)N2CCCCC2c2cccs2)c1 (centres unmarked) [Compound 120, 5-[[2-Oxo-2-[2-(2-thienyl)-1-piperidyl]acetyl]amino]pyridine-3-carboxamide]	A (an IC50 ratio greater than or equal to 10 fold)	< 5.00
< 6.00	6.00 to 7.00	6.30 to 7.30	> 7.30	6.30 to 7.30	Cc1cc(NC(=O)C(=O)N2CCCCC2c2csc3ccccc23)cnc1N (centres unmarked) [Compound 123, N-(6-Amino-5-methyl-3-pyridyl)-2-[2-(benzothiophen-3-yl)-1-piperidyl]-2-oxo-acetamide]	A (an IC50 ratio greater than or equal to 10 fold)	5.00 to 6.00
< 6.00	< 6.00	6.30 to 7.30	6.30 to 7.30	< 6.30	NC(=O)c1cc(NC(=O)C(=O)N2CCCCC2c2ccccc2)cnc1N (centres unmarked) [Compound 126, 2-Amino-5-[[2-oxo-2-(2-phenyl-1-piperidyl)acetyl]amino]pyridine-3-carboxamide]	B (an IC50 ratio greater than or equal to 3 fold but lower than 10 fold)	< 5.00
< 6.00	< 6.00	6.30 to 7.30	6.30 to 7.30	< 6.30	Cc1cc(NC(=O)C(=O)N2CCCCC2c2cccc3scnc23)cnc1N (centres unmarked) [Compound 129, N-(6-Amino-5-methyl-3-pyridyl)-2-[2-(1,3-benzothiazol-4-yl)-1-piperidyl]-2-oxo-acetamide]	B (an IC50 ratio greater than or equal to 3 fold but lower than 10 fold)	< 5.00
< 6.00	< 6.00	< 6.30	6.30 to 7.30	< 6.30	Cc1cc(NC(=O)C(=O)N2CCCCC2c2cccc3c2ncn3C)cnc1N (centres unmarked) [Compound 132, N-(6-Amino-5-methyl-3-pyridyl)-2-[2-(1-methylbenzimidazol-4-yl)-1-piperidyl]-2-oxo-acetamide]	B (an IC50 ratio greater than or equal to 3 fold but lower than 10 fold)	< 5.00
< 6.00	< 6.00	< 6.30	< 6.30	< 6.30	O=C(Nc1cncc(CO)c1)C(=O)N1CCCCC1c1ccccc1 (centres unmarked) [Compound 136, N-(5-(hydroxymethyl)pyridin-3-yl)-2-oxo-2-(2-phenylpiperidin-1-yl)acetamide]	C (an IC50 ratio of less than 3 fold)	< 5.00
< 6.00	6.00 to 7.00	6.30 to 7.30	> 7.30	< 6.30	COc1ncc(NC(=O)C(=O)N2CCCCC2c2ccccc2)cc1C(N)=O (centres unmarked) [Compound 138, 2-methoxy-5-(2-oxo-2-(2-phenylpiperidin-1-yl)acetamido)nicotinamide]	A (an IC50 ratio greater than or equal to 10 fold)	< 5.00
< 6.00	6.00 to 7.00	< 6.30	< 6.30	< 6.30	Cc1cc(NC(=O)C(=O)N2CCCCC2c2cccc3ocnc23)cnc1N (centres unmarked) [Compound 140, N-(6-Amino-5-methyl-3-pyridyl)-2-[2-(1,3-benzoxazol-4-yl)-1-piperidyl]-2-oxo-acetamide]	A (an IC50 ratio greater than or equal to 10 fold)	< 5.00
< 6.00	< 6.00	6.30 to 7.30	6.30 to 7.30	< 6.30	Cc1cc(NC(=O)C(=O)N2CCCCC2c2cccc3[nH]cnc23)cnc1N (centres unmarked) [Compound 142, N-(6-Amino-5-methyl-3-pyridyl)-2-[2-(1H-benzimidazol-4-yl)-1-piperidyl]-2-oxo-acetamide]	B (an IC50 ratio greater than or equal to 3 fold but lower than 10 fold)	< 5.00
< 6.00	6.00 to 7.00	6.30 to 7.30	> 7.30	6.30 to 7.30	CC1CCC2CCCCC2N1C(=O)C(=O)Nc1cncc(C(N)=O)c1 (centres unmarked) [Compound 144, 5-[2-(2-Methyl-decahydroquinolin-1-yl)-2-oxoacetamido]pyridine-3-carboxamide]	A (an IC50 ratio greater than or equal to 10 fold)	< 5.00
< 6.00	< 6.00	< 6.30	6.30 to 7.30	< 6.30	O=Cc1cncc(NC(=O)C(=O)N2CCCCC2c2ccccc2)c1 (centres unmarked) [Compound 147, N-(5-formylpyridin-3-yl)-2-oxo-2-(2-phenylpiperidin-1-yl)acetamide]	C (an IC50 ratio of less than 3 fold)	< 5.00
< 6.00	< 6.00	6.30 to 7.30	6.30 to 7.30	< 6.30	NC(=O)c1cncc(NC(=O)C(=O)N2CCC3(CC2)OCC2CC23)c1 (centres unmarked) [Compound 149, 5-(2-{3-Oxaspiro[bicyclo[3.1.0]hexane-2,4′-piperidine]-1′-yl}-2-oxoacetamido)pyridine-3-carboxamide]	C (an IC50 ratio of less than 3 fold)	< 5.00
< 6.00	< 6.00	< 6.30	< 6.30	< 6.30	Cc1cnc(N)c(NC(=O)C(=O)N2CCCCC2c2ccccc2)c1 (centres unmarked) [Compound 160, N-(2-amino-5-methylpyridin-3-yl)-2-oxo-2-(2-phenylpiperidin-1-yl)acetamide]	C (an IC50 ratio of less than 3 fold)	< 5.00
< 6.00	< 6.00	< 6.30	6.30 to 7.30	< 6.30	NC(=O)c1cncc(NC(=O)C(=O)N2CCCC3(CCSCC3)C2)c1 [Compound 166, 5-(2-Oxo-2-{9-thia-2-azaspiro[5.5]undecan-2-yl}acetamido)pyridine-3-carboxamide]	C (an IC50 ratio of less than 3 fold)	< 5.00
< 6.00	6.00 to 7.00	6.30 to 7.30	6.30 to 7.30	< 6.30	NC(=O)c1cncc(NC(=O)C(=O)N2CCCCC2C2CCC(F)(F)CC2)c1 (centres unmarked) [Compound 170, 5-[[2-[2-(4,4-difluorocyclohexyl)-1-piperidyl]-2-oxo-acetyl]amino]pyridine-3-carboxamide]	A (an IC50 ratio greater than or equal to 10 fold)	< 5.00
